Test results: patent publication US12371428B2 (Exelixis, Inc., priority 2019, dated 2025)
Where two headings read alike, the source gives them in different places.

Key:
Format in all cases: biochemical
[1] = biological target: Human MET (residues 956-1390) (Homo sapiens (Human), UniProt P08581); test: Human Met kinase assay, HTRF KinEase (Example D-2); details: read-out: c-Met IC50
Summary of the method: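 MET kinase domain (956-1390), 0.1 ng/well, in buffer with 5 mM MgCl2, 1 mM DTT and 1 mM MnCl2, phosphorylated a biotinylated peptide at ATP Km for 40 min at RT; 10 concentrations, 3% DMSO final. EDTA-stopped HTRF read after 60 min; IC50 from a 4-parameter logistic fit.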

[2] = biological target: Human KDR (residues 790-1356) (Homo sapiens (Human), UniProt P35968); test: Human KDR kinase assay, HTRF KinEase (Example B-2)
Summary of the method: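 Ten compound concentrations (3% DMSO final) were pre-plated, then KDR (790-1356) with biotinylated peptide in Mg/Mn/DTT buffer was added; ATP at Km (4.0 μM) started a 40 min room-temperature reaction. Detection used Eu-TK antibody and SA-XL665 in EDTA buffer; activity normalized to DMSO and reference inhibitor, IC50 by logistic fit.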

[3] = biological target: Human MER (residues 528-999) (Homo sapiens (Human), UniProt Q12866); test: Human Mer kinase assay, HTRF KinEase (Example C-2)
Summary of the method: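 Recombinant MER 528-999 (1 ng/well) in buffer with 5 mM MgCl2 and 1 mM DTT was reacted with biotinylated peptide and ATP at Km (40 μM) for 60 min at room temperature. EDTA stop with SA-XL665 and Eu3+ TK antibody, then 665/620 nm HTRF read; IC50 from 4-parameter fit.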

[4] = protocol of Example D-2 (other compounds)
[5] = protocol of Example B-2 (other compounds)
[6] = protocol of Example C-2 (other compounds)

Chain of Human MET (residues 956-1390) (P08581 956-1390): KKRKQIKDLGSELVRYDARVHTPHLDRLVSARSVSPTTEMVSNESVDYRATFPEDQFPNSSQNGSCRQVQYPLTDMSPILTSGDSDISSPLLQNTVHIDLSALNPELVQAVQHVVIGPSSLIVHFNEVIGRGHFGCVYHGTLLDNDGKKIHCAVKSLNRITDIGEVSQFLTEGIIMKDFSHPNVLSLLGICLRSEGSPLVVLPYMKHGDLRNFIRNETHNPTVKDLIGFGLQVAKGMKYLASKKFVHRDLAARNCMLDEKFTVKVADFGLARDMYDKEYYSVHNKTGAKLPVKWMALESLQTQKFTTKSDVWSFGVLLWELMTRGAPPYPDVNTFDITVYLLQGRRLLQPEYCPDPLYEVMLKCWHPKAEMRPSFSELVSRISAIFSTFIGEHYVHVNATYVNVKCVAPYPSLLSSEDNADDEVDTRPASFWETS
Chain of Human KDR (residues 790-1356) (P35968 790-1356): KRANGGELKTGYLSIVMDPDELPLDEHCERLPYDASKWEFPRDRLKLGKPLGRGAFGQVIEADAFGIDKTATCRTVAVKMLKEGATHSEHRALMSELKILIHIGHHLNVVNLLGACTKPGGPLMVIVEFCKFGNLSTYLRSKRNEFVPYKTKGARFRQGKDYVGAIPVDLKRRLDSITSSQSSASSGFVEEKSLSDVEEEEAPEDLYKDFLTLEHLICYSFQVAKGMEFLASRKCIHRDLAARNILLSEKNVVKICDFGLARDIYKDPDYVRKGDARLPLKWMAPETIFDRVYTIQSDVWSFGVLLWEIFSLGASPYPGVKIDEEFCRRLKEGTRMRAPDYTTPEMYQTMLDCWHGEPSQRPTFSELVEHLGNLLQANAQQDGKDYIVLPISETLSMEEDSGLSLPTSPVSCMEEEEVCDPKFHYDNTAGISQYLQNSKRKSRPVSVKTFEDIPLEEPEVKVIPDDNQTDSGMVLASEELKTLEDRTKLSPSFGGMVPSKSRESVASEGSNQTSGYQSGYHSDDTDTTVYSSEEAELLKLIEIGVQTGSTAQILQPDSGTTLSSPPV
Chain of Human MER (residues 528-999) (Q12866 528-999): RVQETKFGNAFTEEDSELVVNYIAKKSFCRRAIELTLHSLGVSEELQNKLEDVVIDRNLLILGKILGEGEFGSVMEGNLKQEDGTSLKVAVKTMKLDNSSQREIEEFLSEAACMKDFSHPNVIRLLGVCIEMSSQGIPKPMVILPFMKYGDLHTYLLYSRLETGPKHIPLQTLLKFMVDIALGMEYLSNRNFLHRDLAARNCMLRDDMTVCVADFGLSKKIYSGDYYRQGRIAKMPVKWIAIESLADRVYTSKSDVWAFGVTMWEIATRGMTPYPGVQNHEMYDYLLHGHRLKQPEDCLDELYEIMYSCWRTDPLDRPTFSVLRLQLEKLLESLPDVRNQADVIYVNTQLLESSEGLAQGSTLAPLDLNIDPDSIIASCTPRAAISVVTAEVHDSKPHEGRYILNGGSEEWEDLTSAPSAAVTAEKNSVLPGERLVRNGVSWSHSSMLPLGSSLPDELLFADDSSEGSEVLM

Compound	IC50 [1, 4] [nM]	IC50 [2, 5] [nM]	IC50 [3, 6] [nM]	IC50 ([1]; protocol of Example D-2) [nM]	IC50 ([2]; protocol of Example B-2) [nM]	IC50 ([3]; protocol of Example C-2) [nM]
COc1cc2nccc(Oc3ccc(NC(=O)c4c(C)nc(C)c(-c5ccc(F)cc5)c4O)cc3F)c2nc1OC [Compound 154, N-[4-[(6,7-Dimethoxy-1,5-naphthyridin-4-yl)oxy]-3-fluorophenyl]-5-(4-fluorophenyl)-4-hydroxy-2,6-dimethylpyridine-3-carboxamide]	< 100	< 100	< 100			
COc1cnc2c(Oc3ccc(NC(=O)c4cn(C)c(C)c(-c5ccc(F)cc5C)c4=O)cc3)ccnc2c1 [Compound 187, 5-(4-Fluoro-2-methylphenyl)-N-[4-[(7-methoxy-1,5-naphthyridin-4-yl)oxy]phenyl]-1,6-dimethyl-4-oxopyridine-3-carboxamide]	< 100	> 300	< 100			
COCCOc1ccc2nccc(Oc3ccc(NC(=O)c4cnc(C)c(-c5ccc(F)cc5)c4O)cc3F)c2n1 [Compound 348, N-[3-fluoro-4-[[6-(2-methoxyethoxy)-1,5-naphthyridin-4-yl]oxy]phenyl]-5-(4-fluorophenyl)-4-hydroxy-6-methylpyridine-3-carboxamide]	< 100	100 to 300	< 100			
COc1cc2ncnc(Oc3ccc(NC(=O)c4c5n(cc(-c6ccc(F)cc6)c4=O)CCC5)cc3F)c2cc1OC [Compound 406, N-[4-(6,7-dimethoxyquinazolin-4-yl)oxy-3-fluorophenyl]-6-(4-fluorophenyl)-7-oxo-2,3-dihydro-1H-indolizine-8-carboxamide]	< 100	> 300	< 100			
C=C(C)c1cnc2c(Oc3ccc(NC(=O)c4cnc(C)c(-c5ccc(F)cc5C)c4O)cc3)ccnc2c1 [Compound 448, 5-(4-fluoro-2-methylphenyl)-4-hydroxy-6-methyl-N-[4-[(7-prop-1-en-2-yl-1,5-naphthyridin-4-yl)oxy]phenyl]pyridine-3-carboxamide]				< 100	100 to 300	< 100
C=C(C)c1cnc2c(Oc3ccc(NC(=O)c4c(C)nc(C)c(-c5ccc(F)cc5)c4O)cc3F)ccnc2c1 [Compound 451, 5-(4-fluorophenyl)-N-[3-fluoro-4-[(7-prop-1-en-2-yl-1,5-naphthyridin-4-yl)oxy]phenyl]-4-hydroxy-2,6-dimethylpyridine-3-carboxamide]				< 100	< 100	< 100
C=C(C)c1cnc2c(Oc3ccc(NC(=O)c4cnc(C)c(-c5ccc(F)cc5)c4O)cc3)ccnc2c1 [Compound 454, 5-(4-fluorophenyl)-4-hydroxy-6-methyl-N-[4-[(7-prop-1-en-2-yl-1,5-naphthyridin-4-yl)oxy]phenyl]pyridine-3-carboxamide]				< 100	< 100	< 100
C=C(C)c1cnc2c(Oc3ccc(NC(=O)c4c(C)nc(C)c(-c5ccc(F)cc5)c4O)cc3)ccnc2c1 [Compound 455, 5-(4-fluorophenyl)-4-hydroxy-2,6-dimethyl-N-[4-[(7-prop-1-en-2-yl-1,5-naphthyridin-4-yl)oxy]phenyl]pyridine-3-carboxamide]				< 100	< 100	< 100
C=C(C)c1cnc2c(Oc3ccc(NC(=O)c4c(C)cc(C)n(-c5ccc(F)cc5)c4=O)cc3F)ccnc2c1 [Compound 457, 1-(4-fluorophenyl)-N-[3-fluoro-4-[(7-prop-1-en-2-yl-1,5-naphthyridin-4-yl)oxy]phenyl]-4,6-dimethyl-2-oxopyridine-3-carboxamide]				< 100	< 100	< 100
COc1nc2c(Oc3ccc(NC(=O)c4cnc(C)c(-c5ccc(F)cc5)c4O)cc3F)ccnc2cc1C [Compound 458, N-[3-fluoro-4-[(6-methoxy-7-methyl-1,5-naphthyridin-4-yl)oxy]phenyl]-5-(4-fluorophenyl)-4-hydroxy-6-methylpyridine-3-carboxamide]				100 to 300	100 to 300	< 100
COc1nc2c(Oc3ccc(NC(=O)c4c(C)nc(C)c(-c5ccc(F)cc5)c4O)cc3F)ccnc2cc1C [Compound 459, N-[3-fluoro-4-[(6-methoxy-7-methyl-1,5-naphthyridin-4-yl)oxy]phenyl]-5-(4-fluorophenyl)-4-hydroxy-2,6-dimethylpyridine-3-carboxamide]				100 to 300	100 to 300	< 100
COc1ccc2nccc(Oc3ccc(NC(=O)c4c(C)ncc(-c5ccc(F)cc5C)c4O)cc3F)c2n1 [Compound 480, N-[3-fluoro-4-[(6-methoxy-1,5-naphthyridin-4-yl)oxy]phenyl]-5-(4-fluoro-2-methylphenyl)-4-hydroxy-2-methylpyridine-3-carboxamide]				100 to 300	100 to 300	100 to 300

Next, values leading:

IC50 [1, 4] [nM]	IC50 [2, 5] [nM]	IC50 [3, 6] [nM]	IC50 ([1]; protocol of Example D-2) [nM]	IC50 ([2]; protocol of Example B-2) [nM]	IC50 ([3]; protocol of Example C-2) [nM]	Compound
< 100	< 100	< 100				COc1cc2nccc(Oc3ccc(NC(=O)c4ccc(C)n(-c5ccc(F)cc5)c4=O)cc3F)c2nc1OC [Compound 254, N-[4-[(6,7-Dimethoxy-1,5-naphthyridin-4-yl)oxy]-3-fluorophenyl]-1-(4-fluorophenyl)-6-methyl-2-oxopyridine-3-carboxamide]
< 100	> 300	< 100				COc1cc2nccc(Oc3ccc(NC(=O)c4cn(CC(F)(F)F)c(C)c(-c5ccc(F)cc5)c4=O)cc3)c2cc1OC [Compound 260, N-[4-(6,7-Dimethoxyquinolin-4-yl)oxyphenyl]-5-(4-fluorophenyl)-6-methyl-4-oxo-1-(2,2,2-trifluoroethyl)pyridine-3-carboxamide]
< 100	< 100	< 100				COCCOc1ccc2nccc(Oc3ccc(NC(=O)c4c(C)nc(C)c(-c5ccc(F)cc5)c4O)cc3F)c2n1 [Compound 349, N-[3-fluoro-4-[[6-(2-methoxyethoxy)-1,5-naphthyridin-4-yl]oxy]phenyl]-5-(4-fluorophenyl)-4-hydroxy-2,6-dimethylpyridine-3-carboxamide]
			< 100	100 to 300	< 100	C=C(C)c1cnc2c(Oc3ccc(NC(=O)c4cnc(C)c(-c5ccc(F)cc5C)c4O)cc3F)ccnc2c1 [Compound 450, 5-(4-fluoro-2-methylphenyl)-N-[3-fluoro-4-[(7-prop-1-en-2-yl-1,5-naphthyridin-4-yl)oxy]phenyl]-4-hydroxy-6-methylpyridine-3-carboxamide]
			< 100	< 100	< 100	C=C(C)c1cnc2c(Oc3ccc(NC(=O)c4cnc(C)c(-c5ccc(F)cc5)c4O)cc3F)ccnc2c1 [Compound 456, 5-(4-fluorophenyl)-N-[3-fluoro-4-[(7-prop-1-en-2-yl-1,5-naphthyridin-4-yl)oxy]phenyl]-4-hydroxy-6-methylpyridine-3-carboxamide]
			100 to 300	> 300	< 100	COc1nc2c(Oc3ccc(NC(=O)c4cnc(C)c(-c5ccc(F)cc5C)c4O)cc3F)ccnc2cc1C [Compound 460, N-[3-fluoro-4-[(6-methoxy-7-methyl-1,5-naphthyridin-4-yl)oxy]phenyl]-5-(4-fluoro-2-methylphenyl)-4-hydroxy-6-methylpyridine-3-carboxamide]
			< 100	< 100	< 100	COc1cc2nccc(Oc3ccc(NC(=O)c4c(C)ncc(-c5ccc(F)cc5C)c4O)cc3F)c2nc1OC [Compound 479, N-[4-[(6,7-dimethoxy-1,5-naphthyridin-4-yl)oxy]-3-fluorophenyl]-5-(4-fluoro-2-methylphenyl)-4-hydroxy-2-methylpyridine-3-carboxamide]
